This note sets out measurements from patent publication US7306923B2, “Methods for identification, and compounds useful for the treatment of degenerative & inflammatory diseases” (Galapagos N.V., priority 2004, dated 2007).

The subject of test [1] is MMP1 expression by synovial fibroblasts. The test is described as follows: Inhibition of the response of SFs to supernatant of TNFα-triggered THP1 cells, MMP1 ELISA. It is filed as cell-based, human. The following applies: dexamethasone 100 nM, SB203580 5 μM, added 1 h before trigger with 2-fold diluted SN of TNFα-activated THP1 cells, 72 h. The method, then:
A 384-well format ELISA for measurement of MMP1 is developed. Various primary antibodies are tested, as well as various ELISA protocols. The following protocol is developed and validated to measure MMP1 levels in SF supernatant in 384 well plates: white Lumitrac 600 384 well plates (Greiner) are coated with 2 μg/ml anti-MMP1 antibody MAB1346 (Chemicon). The antibody is diluted in buffer 40 (1.21 g Tris base (Sigma), 0.58 g NaCl (Calbiochem) and 5 ml 10% NaN3 (Sigma) in 1 L milliQ water and adjusted to pH 8.5). After overnight incubation at 4° C., plates are washed with PBS (80 g NaCl, 2 g KCl (Sigma), 11.5 g Na2HPO4.7H2O and 2 g KH2PO4 in 10 L milliQ; pH 7.4) and blocked with 100 μl/well Casein buffer (2% Casein (VWR International) in PBS). Next day, casein buffer is removed from ELISA plates and replaced by 50 μl/well EC buffer (4 g casein, 2.13 g Na2HPO4 (Sigma), 2 g bovine albumin (Sigma), 0.69 g NaH2PO4.H2O (Sigma), 0.5 g CHAPS (Roche), 23.3 g NaCl, 4 ml 0,5 M EDTA pH 8 (Invitrogen), 5 ml 10% NaN3 in 1 L milliQ and adjusted to pH 7.0). 0.25 mM DTT (Sigma) is added to the thawed samples plates. After removal of the EC buffer, 20 μl of sample is transferred to the ELISA plates. […] Readout is performed on the Luminoscan Ascent Luminometer (Labsystems) with an integration time of 200 msec or with an Envision reader (Perkin Elmer). […]
In general terms: An ELISA detects its analyte on a solid surface through an enzyme-linked reagent.

Test [2] shares this test system. The test is described as follows: MMP1 ELISA on SFs triggered with cytokines or supernatant of cytokine-treated THP1 cells. It is filed as cell-based, human. The following applies: each cytokine 25 ng/ml or THP1 supernatant 2-fold diluted, 72 h, 96 well plates. The method, then: A 384-well format ELISA for measurement of MMP1 is developed. Various primary antibodies are tested, as well as various ELISA protocols. The following protocol is developed and validated to measure MMP1 levels in SF supernatant in 384 well plates: white Lumitrac 600 384 well plates (Greiner) are coated with 2 μg/ml anti-MMP1 antibody MAB1346 (Chemicon). The antibody is diluted in buffer 40 (1.21 g Tris base (Sigma), 0.58 g NaCl (Calbiochem) and 5 ml 10% NaN3 (Sigma) in 1 L milliQ water and adjusted to pH 8.5). After overnight incubation at 4° C., plates are washed with PBS (80 g NaCl, 2 g KCl (Sigma), 11.5 g Na2HPO4.7H2O and 2 g KH2PO4 in 10 L milliQ; pH 7.4) and blocked with 100 μl/well Casein buffer (2% Casein (VWR International) in PBS). Next day, casein buffer is removed from ELISA plates and replaced by 50 μl/well EC buffer (4 g casein, 2.13 g Na2HPO4 (Sigma), 2 g bovine albumin (Sigma), 0.69 g NaH2PO4.H2O (Sigma), 0.5 g CHAPS (Roche), 23.3 g NaCl, 4 ml 0,5 M EDTA pH 8 (Invitrogen), 5 ml 10% NaN3 in 1 L milliQ and adjusted to pH 7.0). […] Readout is performed on the Luminoscan Ascent Luminometer (Labsystems) with an integration time of 200 msec or with an Envision reader (Perkin Elmer).
The increase of MMP1 expression by SFs upon treatment with cytokines relevant in the field of RA (TNFα, IL1β and OSM) or a combination thereof is monitored. […]

Turning to `C[S+]([O-])c1ccc(-c2nc(-c3ccncc3)c(-c3ccc(F)cc3)[nH]2)cc1` (stereo not drawn) [SB203580], the “MMP1 levels lower than control levels” value in test [1] came to 3 fold.

Consider `C[C@@H]1C[C@H]2[C@@H]3CCC4=CC(=O)C=C[C@]4(C)[C@@]3(F)[C@@H](O)C[C@]2(C)[C@@]1(O)C(=O)CO` [dexamethasone], for which the “MMP1 levels lower than control levels” value in test [1] was determined as 4 fold. As for TNFα, the “increase (induction) of MMP1 expression by SFs” value in test [2] is reported as about 3 fold.
